Assay [1] deals with T1, HMG-CoA reductase (HMGR) (Homo sapiens, UniProt P04035).
T1 construct: endogenous in cells; host or cells: MCF-7, T47D, MDA-MB-231 (microsomal fraction)
T1 sequence (P04035 1-888): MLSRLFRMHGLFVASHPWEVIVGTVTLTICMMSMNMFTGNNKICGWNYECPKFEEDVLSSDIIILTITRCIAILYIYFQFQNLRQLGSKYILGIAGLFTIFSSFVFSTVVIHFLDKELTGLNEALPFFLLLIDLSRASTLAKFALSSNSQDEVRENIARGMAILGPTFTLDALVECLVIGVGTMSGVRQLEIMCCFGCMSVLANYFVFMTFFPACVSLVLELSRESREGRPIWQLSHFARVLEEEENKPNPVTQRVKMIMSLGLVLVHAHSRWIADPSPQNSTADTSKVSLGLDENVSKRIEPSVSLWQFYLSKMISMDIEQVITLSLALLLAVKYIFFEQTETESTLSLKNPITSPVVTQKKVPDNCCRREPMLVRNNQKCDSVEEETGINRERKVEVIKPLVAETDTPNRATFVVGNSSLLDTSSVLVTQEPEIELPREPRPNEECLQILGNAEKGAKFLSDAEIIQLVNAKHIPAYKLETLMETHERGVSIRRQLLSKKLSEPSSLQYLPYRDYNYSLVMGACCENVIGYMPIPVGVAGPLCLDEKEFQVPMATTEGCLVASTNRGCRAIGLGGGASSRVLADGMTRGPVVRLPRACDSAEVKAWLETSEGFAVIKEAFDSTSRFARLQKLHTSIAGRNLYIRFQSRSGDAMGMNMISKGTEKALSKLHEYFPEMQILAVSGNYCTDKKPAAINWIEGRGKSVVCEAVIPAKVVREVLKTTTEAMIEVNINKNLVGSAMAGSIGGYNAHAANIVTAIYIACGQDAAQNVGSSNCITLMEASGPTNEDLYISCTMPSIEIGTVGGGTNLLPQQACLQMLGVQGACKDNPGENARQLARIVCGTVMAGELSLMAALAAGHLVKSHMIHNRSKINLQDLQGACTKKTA
In words: HMG-CoA reductase activity in microsomal fraction of treated cells. It counts as cell-based. Particulars: MCF-7, T47D and MDA-MB-231 cells treated with 500 μM; compared to solvent vehicle-treated cells. The method, then:
Figure 4 Effect of tocol on ER(+) and ER(−) BC cell proliferation and HMG-CoA reductase activity. (A) Effect of δ-tocols on estrogen and non-estrogen-regulated growth of MCF-7, T47D, and MDA-MB-231 cells. […] Cells were also treated with 30 μM lovastatin (Lova) in the presence or absence of 5 mM M, as described in Section “Materials and Methods.” Values are shown as means and vertical bars represent SEM. The data were analyzed by two-way ANOVA, followed by Bonferroni post hoc test. ***P < 0.001, **P < 0.01, and *P < 0.05 in comparison with control or bare-linked specific control. Ns: not significant. (B) Effect of δ-TT on hydroxymethylglutaryl coenzyme A reductase (HMGR) activity in MCF-7, T47D, and MDA-MB-231 cells. […] Data shown are the mean values ± SEM from three independent experiments performed in triplicate.

Assay [2] concerns ER-dependent transcription in MELN cells. Briefly: ERE-luciferase reporter assay in MELN cells (MCF-7 stably transfected with ERE-β-globin-tk-Luc). It counts as cell-based, human. The settings on record: 500 μM, maximal response = 10 nM E2. An excerpt: MELN cells were established by transfecting ER(+) MCF-7 cells with the ERE-β-globin-tk-Luc-SV-Neo plasmid ([36]). HELN cells were generated by transfection of ER(−) HeLa cells with this plasmid. The HELN-ERα, HELN-ERβ, HELN-ΔAB-ERα, and HELN-ΔAB-ERβ cell lines then underwent a second transfection with the corresponding pSG5-puro plasmids (pSG5-ERα-puro, pSG5-ERβ-puro, pSG5-ΔAB-ERα-puro, and pSG5-ΔAB-ERβ-puro, respectively) and expressed wild-type or mutated ERα or ERβ ([39], [40]). […] Comparison of the activities toward hERα and hERβ with the truncated ΔAB-ERα and ΔAB-ERβ provides a powerful model to identify partial ER agonists (requiring ligand-independent AF-1 to induce maximal ER activation). […] Cells were grown routinely in DMEM growth medium supplemented with 5% FBS (Gibco BRL, Life Technologies, Cergy pontoise, France). Cells were incubated at 37°C in a humidified 5% CO2 incubator. For experiments, cells were grown for 5 days in phenol red-free medium, containing 6% dextran-coated charcoal-treated FCS (DCC-FCS) with penicillin–streptomycin. Medium was changed after 2 days. On day 5, cells were treated or not with the compounds, which were dissolved in ethanol. For each condition, 15 × 10^3 cells were seeded per well in 12-well plates and treated, as described above, for 8 h in a final volume of 0.5 ml. At the end of the treatment, cells were washed with PBS and lysed in 150 μl lysis buffer (Promega, Charbonnières, France). Luciferase activity was measured using the luciferase assay reagent (Promega), according to the manufacturer’s instructions. Protein concentrations were measured using the Bradford technique ([41]) to normalize the luciferase activity data. For each condition, average luciferase activity was calculated from the data of three independent wells.
Figure 3 Measurement of estrogenicity of tocols in vitro. (A) Dose–response curve of the effect of tocols on MCF-7 cells stably transfected with the ERE-β-globin-tk-Luc plasmid (MELN cells). […] Data shown are the mean values ± SEM from three independent experiments. […] MCF-7 extracts were analyzed for the presence of ERα by western blotting using GAPDH as a control. […] The western blot shown is representative of three independent experiments. The ratio of ERα to GAPDH levels in each experiment was determined densitometrically and normalized to control value (taken to be 1). (D) Effect of δ-tocols on estrogen response element-dependent luciferase activity in HELN cells, which are HELA cells transfected with either fully functional ERα or ERβ or their mutated versions containing a deletion the AB domain (ΔAB). […] Data shown are the mean values ± SEM from three independent experiments. […] Cells were treated with 500 μM δ-tocols in the presence or in the absence of ICI. The relative expression of TGFα, PR, and Ps2 (TFF1) after 16 h was analyzed by quantitative RT-PCR. Data shown are the mean values ± SEM from three independent experiments.

Regarding `CC(C)=CCC/C(C)=C/CC/C(C)=C/CC[C@]1(C)CCc2cc(O)cc(C)c2O1` [δ-TT, δ-tocotrienol], the “effect on HMGR activity” value in assay [1] was “inhibition of HMGR activity”. The “luciferase activity as % of the maximal ER-dependent response” value in assay [2] is recorded as 86.6%.
For the compound `Cc1cc(O)cc2c1OC(C)(CCCC(C)CCCC(C)CCCC(C)C)CC2` (stereo not shown) [δ-TP, δ-tocopherol], in assay [1], the “effect on HMGR activity” value is on record as “not”. Further, the “luciferase activity as % of the maximal ER-dependent response” value in assay [2] is given as 76.5%.
